Assay [1] addresses T1, Recombinant human-derived ALK (Homo sapiens, UniProt Q9UM73).
T1 construct: BAG10812.1; 1058-1620 (terminal) amino acids; GST (N); made in house
Kind of assay: Inhibitory activity of compounds against ALK kinase (time-resolved fluorescence resonance energy transfer). The conditions noted are these: 30 μM ATP, 50 nM ULight-poly GT peptide. The assay is classed as biochemical. On the procedure: The inhibitory activity of the compounds on ALK kinase was detected by time-resolved fluorescence resonance energy transfer method, that is, the ratio of fluorescence signals at 665 nm/615 nm was used to represent the activity of the enzyme.
Assay buffer solution: 50 mM 2-[4-(2-hydroxyethyl)-1-piperazinyl]ethanesulfonic acid buffer solution (HEPES) (pH 7.5), 10 mM MgCl2, 1 mM EDTA 0.01%, polyoxyethylene lauryl ether (Brij 35), 2 mM dithiothreitol (DTT).
Enzyme: Recombinant human-derived ALK (gene accession number: BAG10812.1; 1058-1620 (terminal) amino acids) was expressed with a N-terminal GST fusion protein (90 kDa) using a baculovirus expression system.
Enzyme substrate: 50 nM ULight-poly GT polypeptide.
Detection: europium-labeled anti-phosphotyrosine (PT66) antibody.
1. Compounds dissolved in 100% DMSO were added to 384-well plates by acoustic technique; 2. Recombinant human-derived ALK enzyme and enzyme substrate (50 nM ULight-poly GT peptide) or zymolyte (30 μM ATP) were dissolved in freshly prepared assay buffer; 3. The above ALK enzyme and enzyme substrate in the buffer solution were transferred to reaction wells; 4. Then, the zymolyte in the buffer solution was added to the above reaction wells to initiate the reaction; 5. The plate was incubated at room temperature for 1 hour; 6. The detection mixture (PT66 antibody and EDTA) was added to terminate the reaction, and the mixture was incubated at room temperature for 60 minutes; 7. Then, the plate was read using a microplate reader to obtain the ratio of fluorescence signals at 665 nm/615 nm.
Data analysis: Emission ratio (665 nm/615 nm) in the original data was involved in the calculation of the inhibition rate. The concentration and inhibition rate were analyzed using XLfit software 205 mode (4 Parameters Logistic Model) to obtain IC50 value and curve.

The test system of assay [2] is human acute myeloid leukemia cell MV4-11. Kind of assay: Anti-proliferative effect in human acute myeloid leukemia cell MV4-11 (CellTiter-Glo). The settings on record: MV4-11, 96 h, cell proliferation, incubated for 4 days. The class given is cell-based. On the procedure:
In this assay, the inhibitory effect of assay compounds on cell proliferation in human acute myeloid leukemia cell MV4-11 was detected by ATP fluorescence activity detection (CellTiter-Glo).
(§1) (1) Promega CellTiter-Glo luminescent cell viability assay kit (Promega-G7573). (2) 2104 EnVision® plate reader, PerkinElmer.
(§2) The tumor cell line was cultured in a 37° C., 5% CO2 incubator according to the above-mentioned culture conditions. Cells were passaged periodically, and cells in logarithmic growth phase were used for plating.
(1). Cells were stained with trypan blue and viable cells were counted; (2). The cell concentration was adjusted to an appropriate concentration; (3). 90 μL of cell suspension was added to each well of the culture plate, and each well contained 6000 cells. In the blank group and other wells, no cells were inoculated, and only 90 μL of culture medium was added; (4). The plate was incubated in an incubator at 37° C., 5% CO2, and 100% relative humidity overnight.
(1) Formulation of 10× drug solution: A sterile round bottom 96-well plate was used, and the concentration of mother solutions of WX007, WX008, WX009, WX010, WX011 and WX012 was 10 mM. 5 μL of compound was added to the first well with 5 μL of 1640 medium, and mixed well to obtain a concentration of 5 mM. 5 μL of compound from the first well was added to the third well containing 45 μL of 1640 medium and mixed well to obtain a concentration of 500 μM. 5 μL of compound from the third well was added to the fourth well containing 45 μL of 1640 medium and mixed well to obtain a concentration of 50 μM. 20 μL of compound from the fourth well was added to the fifth well containing 180 μL of 1640 medium and mixed well to obtain 5 μM mother solution. Another sterile round bottom 96-well plate was used, and 60 μL of 5 μM compound was added to the first well. 30 μL of 5 μM compound was added to the second well with 60 μL of 1640 medium, and so forth. Compounds were serially diluted 3-fold to obtain a total of 9 concentrations. To the blank control was added an equal volume of DMSO in the same dilution way.
(2) Formulation of drug solution with the final concentration: 10 μL of the 10× drug solution as prepared above was added to 90 μL of culture medium in triplicate. To the control group was added an equal volume of DMSO solution, and the cell plate was flicked, so that the solution was mixed well. To the blank group was added 10 μL of 1640 medium. The plate was gently taped, so that the solution was mixed well. The plate was placed back in 37° C., 5% CO2 incubator and incubated for 4 days.
(1) Formulation of the drug solution: A sterile round-bottom 96-well plate was used, and the stock concentration of each compound was 10 mM. 2 μL of compound in 18 μL of DMSO was added to the first well and the mixture was mixed well to obtain a concentration of 1 mM; 10 μL of compound from the first well was added to the third well containing 90 μL of 1640 medium and the mixture was mixed well to obtain a concentration of 100 μM;
(2) For WX058, WX059, WX060 and WX042, 12 μL of solution from the third well obtained above was added to the fourth well containing 108 μL of 1640 medium and the mixture was mixed well to obtain a drug with 10 μM maximum concentration.
(3) Another new sterile round bottom 96-well plate was used, and 60 μL of each drug with the maximum concentration in step (2) was placed in the first well. 60 μL of solution from the first well was added to the second well with 60 μL 1640 medium, and so forth. Compounds were serially diluted 2-fold to obtain a total of 9 concentrations.
(4) For the blank control group, an equal volume of DMSO was added in the same dilution way.
(5) 10 μL of the solution with gradient drug concentrations prepared as above was added to 90 μL of culture medium in triplicate. For the control group, an equal volume of DMSO solution was added. The cell plate was gently tapped, so that the solution was mixed well. […]

The subject of assay [3] is human lung cancer cell NCI-H2228. Nature of the assay: Anti-proliferative effect in human lung cancer cell NCI-H2228 (CellTiter-Glo). The settings on record: NCI-H2228, 72 h, cell proliferation, cultured for 3 days. The class given is cell-based. On the procedure: In this assay, the inhibitory effect of assay compounds on cell proliferation was assayed in human lung cancer cell NCI-H2228.
as §1, §2
(1). Cells were stained with trypan blue and viable cells were counted; (2). The cell concentration was adjusted to an appropriate concentration;
(3). 90 μL of cell suspension was added to each well of the culture plate as shown in the table above, and cell-free culture medium was added to the blank control well; (4). The plate was incubated in an incubator at 37° C., 5% CO2, and 100% relative humidity overnight.
Preparation of a mother solution storage plate with 400 times the starting compound concentration: the compounds were diluted serially with DMSO from the highest concentration to the lowest concentration. The plate was prepared freshly every time it was used.
(1). 78 μL of cell culture medium was added to a 96-well plate with a V-shaped bottom. […]
(1). […] The culture plate was left at room temperature for 10 minutes to stabilize the luminescence signal; (9). The luminescent signal was detected on a 2104 EnVision plate reader. […]

The test system of assay [4] is human lung cancer NCI-H2228 cells subcutaneous xenograft tumor. Nature of the assay: In vivo pharmacodynamic study in subcutaneous xenograft tumor NOD SCID mouse model of human lung cancer NCI-H2228 cells. Details: species or system NOD SCID mice. The conditions noted are these: 50 mg/kg subcutaneous injection once a day. On the procedure:
Human lung cancer cell NCI-H2228 (ATCC® CRL-5935™) was cultured in vitro in an adherent monolayer in RPMI 1640 medium supplemented with 10% fetal bovine serum, 100 U/mL penicillin and 100 μg/mL streptomycin in an incubator at 37° C. and 5% CO2. Cells were passaged by routine digestion with trypsin-EDTA twice a week. When the cell saturation was 80%-90% and the number met the requirement, the cells are collected, counted, and inoculated.
NOD SCID mice, female, 6-8 weeks old, weighing 18-22 grams.
0.2 mL (10×10^6 cells) of NCI-H2228 cells (with matrigel, v/v 1:1) were subcutaneously inoculated into the right back of each mouse. The administration by group was started when the average tumor volume reached 171 mm^3. One administration cycle comprised seven days, with administration once a day. The assay compounds were administered by subcutaneous injection for a total of four cycles. The subcutaneous injection doses of the assay compounds WX001 and WX002 were both 50 mg/kg. Tumor diameter was measured twice a week with a vernier caliper, and tumor volume was measured in cubic millimeters and calculated by the following formula: V=0.5a×b^2, where a and b are the long and short diameters of the tumor, respectively. The tumor-inhibitory efficacy of the assay compounds was evaluated by using TGI (%). TGI (%) reflects a tumor growth inhibition rate. TGI (%)=[1−(Average tumor volume at the end of administration of a treatment group−Average tumor volume at the beginning of administration of the treatment group)/(Average tumor volume at the end of treatment of a vehicle control group−Average tumor volume at the beginning of treatment of the vehicle control group)]×100%.

Counter-ions that a name gives are not always drawn.

T1 sequence (Q9UM73 1058-1620): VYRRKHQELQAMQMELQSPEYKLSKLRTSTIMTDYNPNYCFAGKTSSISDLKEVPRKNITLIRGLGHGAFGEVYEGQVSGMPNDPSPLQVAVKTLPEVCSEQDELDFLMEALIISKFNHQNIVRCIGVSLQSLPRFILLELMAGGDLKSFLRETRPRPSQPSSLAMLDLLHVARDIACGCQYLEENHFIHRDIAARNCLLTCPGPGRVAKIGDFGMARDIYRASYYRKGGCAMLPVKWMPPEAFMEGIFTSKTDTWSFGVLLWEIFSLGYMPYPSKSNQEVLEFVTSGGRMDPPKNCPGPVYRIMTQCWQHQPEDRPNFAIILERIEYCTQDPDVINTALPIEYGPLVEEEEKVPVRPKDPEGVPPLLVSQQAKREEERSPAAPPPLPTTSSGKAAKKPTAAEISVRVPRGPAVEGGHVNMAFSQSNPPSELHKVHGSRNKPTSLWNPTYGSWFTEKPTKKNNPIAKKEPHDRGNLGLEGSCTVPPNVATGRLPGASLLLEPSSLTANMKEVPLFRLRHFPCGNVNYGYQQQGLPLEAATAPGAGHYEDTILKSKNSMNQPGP

As to `Cc1cc(Nc2ncc(Cl)c(Nc3ccccc3S(=O)(=O)C(C)C)n2)c(OC(C)C)cc1C1CCN(C(=O)COc2ccc3occ(C4CCC(=O)NC4=O)c3c2)CC1` (centres unmarked) [WX003], the half-maximal inhibitory concentration (IC50) in assay [1] came out at 33.8 nM.
As to `Cc1sc2c(c1C)C(c1ccc(Cl)cc1)=N[C@@H](CC(=O)NCCOCCOCCOc1ccc3c(ccc4occ(C5CCC(=O)NC5=O)c43)c1)c1nnc(C)n1-2` (some centres unmarked) [WX008], in assay [2], the IC50 was determined as 22.5 nM.
Same read-out and setting: the value for `Cc1sc2c(c1C)C(c1ccc(Cl)cc1)=N[C@@H](CC(=O)NCCCCOc1ccc3occ(C4CCC(=O)NC4=O)c3c1)c1nnc(C)n1-2` (some centres unmarked) [WX060] was 17 nM; that for `Cc1sc2c(c1C)C(c1ccc(Cl)cc1)=N[C@@H](CC(=O)NCCCCCCOc1ccc3c(ccc4occ(C5CCC(=O)NC5=O)c43)c1)c1nnc(C)n1-2` (some centres unmarked) [WX012] was 70.6 nM.
The same measure, in the same setting: the value for `Cc1sc2c(c1C)C(c1ccc(Cl)cc1)=N[C@@H](CC(=O)NCCNc1ccc3c(ccc4occ(C5CCC(=O)NC5=O)c43)c1)c1nnc(C)n1-2` (some centres unmarked) [WX010] was 61.3 nM; that for `Cc1sc2c(c1C)C(c1ccc(Cl)cc1)=N[C@@H](CC(=O)NCCCCCCNc1ccc3c(ccc4occ(C5CCC(=O)NC5=O)c43)c1)c1nnc(C)n1-2` (some centres unmarked) [WX009] was 51.7 nM.
Same read-out and setting: the value for `Cc1sc2c(c1C)C(c1ccc(Cl)cc1)=N[C@@H](CC(=O)NCCOc1ccc3occ(C4CCC(=O)NC4=O)c3c1)c1nnc(C)n1-2` (some centres unmarked) [WX059] was 16.6 nM; that for `Cc1sc2c(c1C)C(c1ccc(Cl)cc1)=N[C@@H](CC(=O)NCCCOc1ccc3occ(C4CCC(=O)NC4=O)c3c1)c1nnc(C)n1-2` (some centres unmarked) [WX058] was 11.3 nM.
Take `Cc1sc2c(c1C)C(c1ccc(Cl)cc1)=N[C@@H](CC(=O)NCCOCCOc1ccc3c(ccc4occ(C5CCC(=O)NC5=O)c43)c1)c1nnc(C)n1-2` (some centres unmarked) [WX011]: in assay [2], the IC50 worked out at 73.8 nM.
In turn, `Cc1sc2c(c1C)C(c1ccc(Cl)cc1)=N[C@@H](CC(=O)NCCCNC(=O)COc1ccc3occ(C4CCC(=O)NC4=O)c3c1)c1nnc(C)n1-2` (some centres unmarked) [WX042] displayed a concentration for half-maximal inhibition (IC50) in assay [2] of 35.4 nM.
For `Cc1cc(Nc2ncc(Cl)c(Nc3ccccc3S(=O)(=O)C(C)C)n2)c(OC(C)C)cc1C1CCN(CCOc2ccc3occ(C4CCC(=O)NC4=O)c3c2)CC1` (centres unmarked) [WX006], in assay [1], the IC50 amounted to 12.2 nM.
Molecule `Cc1sc2c(c1C)C(c1ccc(Cl)cc1)=N[C@@H](CC(=O)NCCOc1ccc3c(ccc4occ(C5CCC(=O)NC5=O)c43)c1)c1nnc(C)n1-2` (some centres unmarked) [WX007] displayed an IC50 in assay [2] of 202 nM.
For `Cc1cc(Nc2ncc(Cl)c(Nc3ccccc3S(=O)(=O)C(C)C)n2)c(OC(C)C)cc1C1CCN(CC(=O)NCc2ccc3c(ccc4occ(C5CCC(=O)NC5=O)c43)c2)CC1` (centres unmarked) [WX002 hydrochloride], the IC50 in assay [1] was found to be 15.6 nM; in assay [3], 160 nM. Further, in assay [4] (Day 1), the “Tumor volume (Day 1)” value was 172 ± 11 mm^3. For the same molecule, the “TGI (Day 28)” value in assay [4] (Day 28) was found to be 100.38%. Moreover, the “Tumor volume (Day 28)” value in assay [4] (Day 28) turned out to be 169 ± 30 mm^3.

The record behind these values is US20230158152A1, “PROTEOLYSIS REGULATOR AND METHOD FOR USING SAME” (MEDSHINE DISCOVERY INC., priority 2020, published 2023).
